From ChEMBL document CHEMBL1201862, “PubChem BioAssay data set” (2004)
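Growth conditions: 96-well plates. Treatment: test compound, 48 hours, 5 concentrations. Analysis: linear interpolation between bracketing concentrations; unreached endpoints set to highest concentration. Abbreviation: GI50, concentration required for 50% inhibition of growth.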 Calls of active or inactive are those of the source. Rule as the data show it: active = GI50 up to about 1.1 µM and inactive = higher.

How the values were obtained:
Experiment in all cases: growth of human tumour cells (NCI), 48 h
CCRF-CEM = test system: CCRF-CEM
SNB-19 = test system: SNB-19
UO-31 = test system: UO-31
RPMI-8226 = test system: RPMI-8226
UACC-62 = test system: UACC-62
K562 = test system: K562
COLO 205 = test system: COLO 205
NCI-H522 = test system: NCI-H522
NCI-H460 = test system: NCI-H460
NCI-H226 = test system: NCI-H226
HT-29 = test system: HT-29
MOLT-4 = test system: MOLT-4
NCI/ADR-RES = test system: NCI/ADR-RES
OVCAR-8 = test system: OVCAR-8
MDA-N = test system: MDA-N
SF-295 = test system: SF-295
SR = test system: SR
LOX IMVI = test system: LOX IMVI
A498 = test system: A498
MCF7 = test system: MCF7

SMILES	GI50 (CCRF-CEM)	GI50 (SNB-19)	GI50 (UO-31)	GI50 (RPMI-8226)	GI50 (UACC-62)	GI50 (K562)	GI50 (COLO 205)	GI50 (NCI-H522)	GI50 (NCI-H460)	GI50 (NCI-H226)	GI50 (HT-29)	GI50 (MOLT-4)	GI50 (NCI/ADR-RES)	GI50 (OVCAR-8)	GI50 (MDA-N)	GI50 (SF-295)	GI50 (SR)	GI50 (LOX IMVI)	GI50 (A498)	GI50 (MCF7)
CCOC(=O)c1nnsc1NC(=O)Nc1ccc(Cl)cc1	> 100 µM (inactive)	> 100 µM (inactive)	31.1 µM (inactive)	44.5 µM (inactive)	71 µM (inactive)	> 100 µM (inactive)	67.3 µM (inactive)	15.8 µM (inactive)	7 µM (inactive)	36.6 µM (inactive)	54.3 µM (inactive)	> 100 µM (inactive)	25.1 µM (inactive)	18.5 µM (inactive)	32.8 µM (inactive)	–	–	–	–	–
CC1CC[C@]2(C(=O)O)CCC3(COC(=O)/C=C\c4ccc(O)cc4)C(=CCC4[C@@]5(C)CC[C@H](O)C(C)(C)C5CC[C@]43C)[C@@H]2[C@H]1C (some centres not stated)	20.4 µM (inactive)	12.3 µM (inactive)	17.7 µM (inactive)	22.3 µM (inactive)	17.2 µM (inactive)	13 µM (inactive)	23.3 µM (inactive)	17.5 µM (inactive)	15.7 µM (inactive)	18.5 µM (inactive)	19.7 µM (inactive)	26.6 µM (inactive)	–	20.1 µM (inactive)	–	17.1 µM (inactive)	20.6 µM (inactive)	14.1 µM (inactive)	27 µM (inactive)	–
C/C(=N\Nc1ccc([N+](=O)[O-])cc1)C(=O)N(C)Nc1ccccc1	> 100 µM (inactive)	> 100 µM (inactive)	39.9 µM (inactive)	76 µM (inactive)	45.2 µM (inactive)	63.2 µM (inactive)	58.3 µM (inactive)	52.8 µM (inactive)	47.1 µM (inactive)	38.9 µM (inactive)	66.8 µM (inactive)	41 µM (inactive)	–	51.4 µM (inactive)	–	34.5 µM (inactive)	47.8 µM (inactive)	64.4 µM (inactive)	29 µM (inactive)	–
CN(C)CCNc1ccc2ncn3c4ccccc4c(=O)c1c23	2.25 µM (inactive)	7.96 µM (inactive)	1.53 µM (inactive)	2.84 µM (inactive)	3.22 µM (inactive)	> 100 µM (inactive)	0.94 µM (active)	1.29 µM (inactive)	0.805 µM (active)	1.91 µM (inactive)	1.38 µM (inactive)	0.615 µM (active)	–	1.15 µM (inactive)	–	2.47 µM (inactive)	0.822 µM (active)	1.15 µM (inactive)	6.93 µM (inactive)	–
C=CC[C@H](N=C(SC)SC)C(=O)N1C(=O)N(C)[C@@H](C)[C@H]1c1ccccc1	22.3 µM (inactive)	58.7 µM (inactive)	47.9 µM (inactive)	–	35.1 µM (inactive)	29.6 µM (inactive)	28 µM (inactive)	14.9 µM (inactive)	34.1 µM (inactive)	31.6 µM (inactive)	38.6 µM (inactive)	26.4 µM (inactive)	29.5 µM (inactive)	51.1 µM (inactive)	33.8 µM (inactive)	40.3 µM (inactive)	–	72.8 µM (inactive)	56.8 µM (inactive)	34.8 µM (inactive)
Cc1cc(-c2c(Br)cc(C(=O)O)n2C)on1	> 100 µM (inactive)	> 100 µM (inactive)	> 100 µM (inactive)	> 100 µM (inactive)	> 100 µM (inactive)	> 100 µM (inactive)	> 100 µM (inactive)	> 100 µM (inactive)	> 100 µM (inactive)	> 100 µM (inactive)	> 100 µM (inactive)	> 100 µM (inactive)	> 100 µM (inactive)	> 100 µM (inactive)	> 100 µM (inactive)	> 100 µM (inactive)	–	> 100 µM (inactive)	> 100 µM (inactive)	–
CN(C)C[C@H]1CC[C@@H](CN(C)C)C1=O	–	> 50 µM (inactive)	14.9 µM (inactive)	0.535 µM (active)	9.08 µM (inactive)	0.564 µM (active)	3.67 µM (inactive)	0.453 µM (active)	19.5 µM (inactive)	13.1 µM (inactive)	9.84 µM (inactive)	1.23 µM (inactive)	–	9.08 µM (inactive)	8.55 µM (inactive)	48.9 µM (inactive)	2.21 µM (inactive)	7.14 µM (inactive)	49.2 µM (inactive)	1.18 µM (inactive)
NC(=O)c1c2c(cc3c(=O)c4ccccc4[nH]c13)CCCC2	> 65 µM (inactive)	> 71.4 µM (inactive)	> 100 µM (inactive)	> 46.8 µM (inactive)	> 100 µM (inactive)	> 65.2 µM (inactive)	> 100 µM (inactive)	> 100 µM (inactive)	> 100 µM (inactive)	> 100 µM (inactive)	> 100 µM (inactive)	> 61.2 µM (inactive)	–	> 97.3 µM (inactive)	–	> 100 µM (inactive)	> 100 µM (inactive)	> 100 µM (inactive)	> 100 µM (inactive)	–
O=C(CN(c1ccccc1)c1ccccc1)N1c2ccccc2C2C=CC=CC21 (configuration not stated)	9.42 µM (inactive)	17.5 µM (inactive)	30.1 µM (inactive)	8.22 µM (inactive)	21.1 µM (inactive)	14.3 µM (inactive)	11 µM (inactive)	18 µM (inactive)	19.3 µM (inactive)	18.5 µM (inactive)	22.2 µM (inactive)	8.05 µM (inactive)	–	20.7 µM (inactive)	–	24.5 µM (inactive)	0.579 µM (active)	18.2 µM (inactive)	32.4 µM (inactive)	–
CNC(=S)N/N=C(C)\C(=N/NC(=S)NC)c1ccccc1	–	70.3 µM (inactive)	30.7 µM (inactive)	–	> 100 µM (inactive)	–	55.5 µM (inactive)	28.9 µM (inactive)	25.7 µM (inactive)	63.7 µM (inactive)	–	–	39.3 µM (inactive)	–	89.7 µM (inactive)	34.4 µM (inactive)	–	42.1 µM (inactive)	–	82.8 µM (inactive)
O=C1C=C(NCCc2ccc(O)cc2)C(=O)C=C1NCCc1ccc(O)cc1	46.9 µM (inactive)	> 100 µM (inactive)	> 100 µM (inactive)	> 100 µM (inactive)	> 100 µM (inactive)	38 µM (inactive)	> 100 µM (inactive)	> 100 µM (inactive)	> 100 µM (inactive)	> 100 µM (inactive)	> 100 µM (inactive)	46.5 µM (inactive)	> 100 µM (inactive)	48.8 µM (inactive)	–	> 100 µM (inactive)	> 100 µM (inactive)	35.1 µM (inactive)	> 100 µM (inactive)	> 100 µM (inactive)
Cc1cccc(C)c1NC(=O)CCC(=O)NNc1nnc(C)n1N	> 100 µM (inactive)	> 100 µM (inactive)	> 100 µM (inactive)	> 100 µM (inactive)	> 100 µM (inactive)	> 100 µM (inactive)	> 100 µM (inactive)	> 100 µM (inactive)	> 100 µM (inactive)	> 100 µM (inactive)	> 100 µM (inactive)	> 100 µM (inactive)	–	> 100 µM (inactive)	–	> 100 µM (inactive)	> 100 µM (inactive)	> 100 µM (inactive)	53.3 µM (inactive)	–
CCOC(=O)C12OC(OCC)(CC1(OCC)OCC)C1(CC1)C2=O (configuration not stated)	> 100 µM (inactive)	> 100 µM (inactive)	> 100 µM (inactive)	–	–	> 100 µM (inactive)	> 100 µM (inactive)	–	> 100 µM (inactive)	> 100 µM (inactive)	> 100 µM (inactive)	> 100 µM (inactive)	> 100 µM (inactive)	> 100 µM (inactive)	> 100 µM (inactive)	> 100 µM (inactive)	–	> 100 µM (inactive)	> 100 µM (inactive)	> 100 µM (inactive)
N#CC(C(=O)CCC(=O)C(C#N)c1ccccc1)c1ccccc1 (configuration not stated)	> 100 µM (inactive)	> 100 µM (inactive)	> 100 µM (inactive)	> 100 µM (inactive)	> 100 µM (inactive)	> 100 µM (inactive)	> 100 µM (inactive)	> 100 µM (inactive)	> 100 µM (inactive)	> 100 µM (inactive)	> 100 µM (inactive)	> 100 µM (inactive)	–	> 100 µM (inactive)	–	> 100 µM (inactive)	> 100 µM (inactive)	> 100 µM (inactive)	> 100 µM (inactive)	–
COC(=O)c1cc(NC(=O)c2cc(NC(=O)c3cc([N+](=O)[O-])cn3C)cn2C)cn1C	> 100 µM (inactive)	59.6 µM (inactive)	68.4 µM (inactive)	29.4 µM (inactive)	55.6 µM (inactive)	61.9 µM (inactive)	44.4 µM (inactive)	–	40.3 µM (inactive)	> 100 µM (inactive)	> 100 µM (inactive)	29.8 µM (inactive)	61.4 µM (inactive)	> 100 µM (inactive)	> 100 µM (inactive)	89.5 µM (inactive)	–	56.2 µM (inactive)	> 100 µM (inactive)	> 100 µM (inactive)
CCOC(=O)c1cc(-c2cc(OC)c(OC)c([N+](=O)[O-])c2)c([N+](=O)[O-])n1C	3.24 µM (inactive)	> 10 µM (inactive)	> 10 µM (inactive)	–	3.53 µM (inactive)	2.83 µM (inactive)	–	4.13 µM (inactive)	3.9 µM (inactive)	> 10 µM (inactive)	3.18 µM (inactive)	3.5 µM (inactive)	3.94 µM (inactive)	> 10 µM (inactive)	–	3.42 µM (inactive)	4.81 µM (inactive)	–	–	–
